pIC50, pKd: −log10 of the molar value. Where two headings read alike, the source gives them in different places.
Columns and labels:
[1] = test system: TF1 JAK2 V617F STAT3 reporter; experiment: Cellular TF1 STAT3 assay (luciferase reporter), JAK2 V617F; type: cell-based; details: read-out: Cell PD-TF1 JAK2 V617F STAT3 (IC50)
Description: (§1) Selected compounds of the present disclosure were tested in a Cellular TF1 STAT3 or STAT5 assay, to measure the degree of JAK2-mediated STAT3 or STAT5 phosphorylation, respectively. TF1 cells (immortalized erythroleukemia line) expressing either wildtype or V617F mutant JAK2 with a luciferase reporter were used.
(§2) Cell culture: Cells were put into antibiotic selection (1 ug/ml puro+500 ug/ml Geneticin) when first thawed then maintained in growth media without antibiotics. Cells were maintained in exponential growth phase, between 0.02-1 E6 cells/ml.
(§3) Compound preparation: Compounds were screened as 10-point dose response curves 1:3 dilutions. DMSO is used as the vehicle control. All wells were normalized to the same final DMSO concentration. Compounds were pre-spotted onto 384 well plates using an Echo acoustic dispenser, 50 nL of 1000× (10 mM top concentration) DMSO stock/well. Each compound is run in triplicate plates.
(§4) Cell plating: Cells were counted using Vi-Cell XR, then cells were spun down and resuspended in growth media to 200,000 cells/ml. Cells were added to plates containing compound. 10,000 cells/well in 50 ul volume using a Biomek liquid handler. Plates were briefly mixed on a shaker for 1 minute at 2500 rpm then placed in a 37° C., 5% CO2 incubator overnight for 18-20 hrs.
(§5) Measuring luciferase activity: ONE-glo reagent was brought to room temperature, and 25 μL of ONE-glo assay reagent was added to each well using Biomek liquid handler. The plates were incubated for 10 minutes at room temperature, then luminescence was measured on an Envision plate reader.

[2] = biological target: T1, JAK2 JH2 WT (V536-D812) [W659A, W777A, F794H solubilizing mutations] (Homo sapiens, UniProt O60674, F794H/W659A/W777A); experiment: Surface Plasmon Resonance (SPR) binding assay, JAK2 JH2 domain
T1 construct: **JAK2 JH2 WT (V536-D812) [W659A, W777A, F794H solubilizing mutations]; C-thrombin-avi-His6; thrombin cleavage site (C); His6 (C); purchased Biortus
T1 sequence (O60674 536-812 W659A/W777A/F794H): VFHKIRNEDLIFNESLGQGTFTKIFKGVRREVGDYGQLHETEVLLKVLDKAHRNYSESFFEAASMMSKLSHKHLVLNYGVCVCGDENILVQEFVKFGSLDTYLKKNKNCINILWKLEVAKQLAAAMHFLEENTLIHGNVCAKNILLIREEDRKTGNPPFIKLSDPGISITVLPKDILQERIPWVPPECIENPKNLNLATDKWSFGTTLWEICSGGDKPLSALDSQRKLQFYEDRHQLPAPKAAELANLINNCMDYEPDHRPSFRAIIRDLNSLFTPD
Description: Selected compounds of the present disclosure were tested in a Surface Plasmon Resonance (SPR) Assay to measure their binding kinetics and affinity for proteins of interest.
Prepare buffer: 50 mM HEPES pH 7.5, 150 mM NaCl, 0.05% (v/v) Tween, and 10% (v/v) glycerol were combined and pH was adjusted to 7.5, then filtered. 5 mM DTT, was added, and buffer without DMSO was reserved for compound resuspension. 2% (v/v) DMSO was added for assay buffer, and separately 1% DMSO was used to make buffer for resuspending compounds.
Prepare compounds: Using a Bravo liquid handler, 99 μL of 1% (v/v) DMSO assay buffer was added to 1 μL compounds in DMSO.
Run 8K Method: Biotin CAPture (CAP) chip surface was regenerated prior to run by: Inserting CAP chip into Biacore 8K, prime machine with assay buffer with 2% (v/v) DMSO; Setting instrument temperature to 20° C.; Conditioning surface with NaOH/GdnHCl reagents from CAP chip kit (60 seconds, 10 μL/min); and Capturing oligo-Streptavidin (SA) reagent from CAP kit (600 seconds, 1 μL/min), expected capture ˜2500 RU. JAK2 JH1 or JH2 protein was immobilized by preparing a sample of 0.5 uM JH1 or 0.4 uM JH2 protein diluted in assay buffer without DMSO and supplemented with 10 uM of a selected compound of the invention as a stabilizer (370 seconds, 5 uL/min), expected capture ˜1000 RU. Remaining biotin sites on SA were blocked with 1 uM biotin (30 seconds, 20 uL/min), then equilibrated for 1800 seconds at 100 uL/min. Compounds being assayed were run in single cycle kinetics: 4 doses with a top concentration of 5 uM (JH1) or 500 nM (JH2), dilution factor of 3, at 20° C., for a contact time of 60 seconds, and a dissociation time of 300 seconds (JH1) or 1200 seconds (JH2), at a flow rate of 30 uL/min. The surface was completely regenerated after each compound is run, and JH1 or JH2 protein was immobilized fresh prior to each new compound. Data were fitted kinetically with 1:1 binding model using Biacore Insight Evaluation Software.

[3] = test system: TF1 JAK2 V617F STAT5 reporter; experiment: Cellular TF1 STAT5 assay (luciferase reporter), JAK2 V617F; type: cell-based; details: read-out: Cell PD TF1 V617F STAT5 (IC50)
Description: as §1, §2, §3, §4, §5

[4] = Homo sapiens, TF-1, TF1 cells, JAK2 V617F

SMILES	pIC50 ([1]; TF1 JAK2 V617F)	pKd ([2]; SPR, JAK2 JH2 domain)	pIC50 ([3]; TF1 JAK2 V617F)	pIC50 [1, 4]	pKd [2]	pIC50 [3, 4]
CNC(=O)c1nnc(NC(=O)C2CC2)cc1Nc1cccc(-c2ccc(C(=O)N(C)Cc3cc(C#N)n(C)n3)nc2)c1OC [Compound 71]	6.30 to 7.30	8.00 to 11.00	6.30 to 7.30	–	–	–
CNC(=O)c1nnc(NC(=O)C2CC2)cc1Nc1cccc(-c2cnn(C3CN(Cc4cccn5nccc45)C3)c2)c1OC [Compound 303]	–	–	–	6.30 to 7.30	8.00 to 11.00	6.30 to 7.30
COc1c(Nc2cc(NC(=O)C3CC3)nnc2-c2ncc[nH]2)cccc1-c1ccc(C(=O)N(C)Cc2cc(C#N)ccn2)nc1 [Compound 366]	–	–	–	6.30 to 7.30	8.00 to 11.00	6.30 to 7.30
CNC(=O)c1nnc(NC(=O)C2CC2)cc1Nc1cccc(-c2cnn(C3CN(Cc4cccc5nccn45)C3)c2)c1OC [Compound 374]	–	–	–	6.30 to 7.30	8.00 to 11.00	6.30 to 7.30
CNC(=O)c1nnc(NC(=O)C2CC2)cc1Nc1ccc(C)c(-c2cnc(C(=O)N(C)Cc3cn(C)nc3C)c(F)c2)c1OC [Compound 230]	–	–	–	6.30 to 7.30	8.00 to 11.00	6.30 to 7.30
CNC(=O)c1nnc(NC(=O)C2CC2)cc1Nc1cccc(-c2cnn(C3CN(Cc4cccc(C5CC5)n4)C3)c2)c1OC [Compound 276]	–	–	–	6.30 to 7.30	8.00 to 11.00	6.30 to 7.30
CNC(=O)c1nnc(NC(=O)C2CC2)cc1Nc1cccc(-c2cnc(C3CN(Cc4cccn(C)c4=O)C3)nc2)c1OC [Compound 326]	–	–	–	4.00 to 5.30	7.30 to 8.00	4.00 to 5.30
CNC(=O)c1nnc(NC(=O)C2CC2)cc1Nc1cccc(-c2ccc(C3CN(Cc4ccccn4)C3)nc2)c1OC [Compound 182]	4.00 to 5.30	8.00 to 11.00	5.30 to 6.30	–	–	–
CNC(=O)c1nnc(NC(=O)C2CC2)cc1Nc1cccc(-c2ccc(C(=O)N(C)C[C@H]3CCCC3(F)F)cc2)c1OC (single isomer, unassigned) [Compound 206]	–	–	–	4.00 to 5.30	7.30 to 8.00	4.00 to 5.30
CNC(=O)c1nnc(NC(=O)C2CC2)cc1Nc1ccc(C)c(-c2cnc(C(=O)N(C)Cc3cc(C(F)F)ccn3)c(F)c2)c1OC [Compound 289]	–	–	–	6.30 to 7.30	8.00 to 11.00	6.30 to 7.30
CNC(=O)c1nnc(NC(=O)C2CC2)cc1Nc1cccc(-c2cnn(C3CN(Cc4nnc(C)s4)C3)c2)c1OC [Compound 144]	5.30 to 6.30	8.00 to 11.00	5.30 to 6.30	–	–	–
CNC(=O)c1nnc(NC(=O)C2CC2)cc1Nc1nccc(-c2ccc(C(=O)N(C)Cc3ncc(COC)s3)nc2)c1OC [Compound 375]	–	–	–	–	8.00 to 11.00	–
CNC(=O)c1nnc(NC(=O)C2CC2)cc1Nc1cccc(-c2ccc(C(=O)N(C)Cc3cccc(C)n3)nc2)c1OC [Compound 167]	6.30 to 7.30	8.00 to 11.00	6.30 to 7.30	–	–	–
CNC(=O)c1nnc(NC(=O)C2CC2)cc1Nc1ccc(C)c(-c2ccc(C(=O)N(C)Cc3cc(C(F)F)ccn3)nc2)c1OC [Compound 296]	–	–	–	6.30 to 7.30	8.00 to 11.00	6.30 to 7.30
CNC(=O)c1nnc(NC(=O)C2CC2)cc1Nc1cccc(-c2ccc(C(=O)N(C)Cc3cn4c(n3)CCCC4)nc2)c1OC [Compound 84]	5.30 to 6.30	7.30 to 8.00	4.00 to 5.30	–	–	–
CNC(=O)c1nnc(NC(=O)C2CC2)cc1Nc1cccc(-c2cnn(C3CN(Cc4ncsc4C)C3)c2)c1OC [Compound 125]	5.30 to 6.30	8.00 to 11.00	5.30 to 6.30	–	–	–
CNC(=O)c1nnc(NC(=O)C2CC2)cc1Nc1ccc(C)c(-c2ccc(C(=O)N(C)Cc3cn(C)nc3C)cn2)c1OC [Compound 278]	–	–	–	5.30 to 6.30	8.00 to 11.00	5.30 to 6.30
CNC(=O)c1nnc(NC(=O)C2CC2)cc1Nc1cccc(-c2cnn([C@H]3CCN(Cc4ccccn4)C3)c2)c1OC (single isomer, unassigned) [Compound 333]	–	–	–	5.30 to 6.30	8.00 to 11.00	5.30 to 6.30
CNC(=O)c1nnc(NC(=O)C2CC2)cc1Nc1cccc(-c2cnn([C@H]3C[C@H]([C@@H](O)c4ccccn4)C3)c2)c1OC (single isomer, unassigned) [Compound 396]	–	8.00 to 11.00	–	5.30 to 6.30	–	5.30 to 6.30
CNC(=O)c1nnc(NC(=O)C2CC2)cc1Nc1cccc(-c2cnn([C@@H]3CCN(Cc4cccc(C#N)n4)C3)c2)c1OC (single isomer, unassigned) [Compound 318]	–	–	–	5.30 to 6.30	8.00 to 11.00	5.30 to 6.30
CNC(=O)c1nnc(NC(=O)C2CC2)cc1Nc1ccc(Cl)c(-c2ccc(C(=O)N(C)Cc3cc(C#N)n(C)n3)nc2)c1OC [Compound 205]	–	–	–	6.30 to 7.30	8.00 to 11.00	6.30 to 7.30
CNC(=O)c1nnc(NC(=O)C2CC2)cc1Nc1cccc(-c2ccc(C(=O)N(C)Cc3c(C)nn(C)c3Cl)nc2)c1OC [Compound 197]	–	–	–	6.30 to 7.30	8.00 to 11.00	6.30 to 7.30
CNC(=O)c1nnc(NC(=O)C2CC2)cc1Nc1cccc(-c2cnn(C3CN(Cc4cnccn4)C3)c2)c1OC [Compound 110]	6.30 to 7.30	8.00 to 11.00	5.30 to 6.30	–	–	–
CNC(=O)c1nnc(NC(=O)C2CC2)cc1Nc1cccc(-c2ccc(C(=O)N(C)Cc3ccn(C)n3)c(F)c2)c1OC [Compound 132]	5.30 to 6.30	8.00 to 11.00	5.30 to 6.30	–	–	–
COc1c(Nc2cc(NC(=O)C3CC3)nn3cc(C)nc23)cccc1-c1cnn(C2CN(Cc3ccccn3)C2)c1 [Compound 204]	–	–	–	5.30 to 6.30	8.00 to 11.00	5.30 to 6.30
[2H]C([2H])([2H])N(Cc1cc(C#N)ccn1)C(=O)c1ncc(-c2c(C)ccc(Nc3cc(NC(=O)C4CC4)nnc3C(=O)NC)c2OC)cn1 [Compound 87]	–	8.00 to 11.00	–	–	–	–
CNC(=O)c1nnc(NC(=O)C2CC2)cc1Nc1cccc(-c2ccc(C(=O)N(C)C(C)c3cnn(C)c3)nc2)c1OC (stereo not shown) [Compound 46]	–	8.00 to 11.00	–	–	–	–
CNC(=O)c1nnc(NC(=O)C2CC2)cc1Nc1cccc(-c2ccc(C3CN(Cc4ccc(OC5CC5)cn4)C3)nc2)c1OC [Compound 390]	–	–	–	–	6.30 to 7.30	–

Reference: patent US20240368122A1, “JAK2 INHIBITORS AND METHODS OF USE THEREOF” (RELAY THERAPEUTICS, INC., priority 2021, published 2024)
